# Results: patent US12157730B2, “Heteroaryl derivative, method for producing same, and pharmaceutical composition comprising same as effective component” (VORONOI INC., priority 2019, dated 2024)
# Target: T1, Ba/F3 cell EGFR Exon20 ins NPH (Homo sapiens, UniProt P00533, INS773NPH)
# T1 construct: expressed in transfected cells; host or cells: Ba/F3
# Assay: Ba/F3 cell proliferation suppression, EGFR Exon20 ins NPH
# Assay type: cell-based
# Settings: GI50 class; Ba/F3 cell line with NPH inserted at Exon20 of EGFR; 72 hours
# Method in brief: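 Seed 3000–5000 cells/well; after 24 h add compound (12 conc., 0.3 nM–50 um final); incubate 72 h; add CellTiter-Glo, 10 min room temperature; read luminescence; GI50 from % growth vs control, triplicate.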
row,Structure (SMILES),Ba/F3 (NPH) Activity
1,"C=CC(=O)Nc1cc(Nc2cc(N3OCC[C@@H]3c3cccc(F)c3Cl)ncn2)c(OC)cc1N1CCC(N2CCN(C3COC3)CC2)CC1 [Example 201, N-(5-((6-((R)-3-(2-chloro-3-fluorophenyl)isoxazolidine-2-yl)pyrimidine-4-yl)amino)-4-methoxy-2-(4-(4-(oxetane-3-yl)piperazine-1-yl)piperidine-1-yl)phenyl)acrylamide]",A (GI50 < 50 nM)
2,"C=CC(=O)Nc1cc(Nc2cc(N3OCC[C@@H]3c3cc(F)ccc3F)ncn2)c(OC)cc1N1CCC(N2C[C@@H](C)N(C3CC3)C[C@@H]2C)CC1 [Example 174, N-(2-(4-((2S,5R)-4-cyclopropyl-2,5-dimethylpiperazine-1-yl)piperidine-1-yl)-5-((6-((R)-3-(2,5-difluorophenyl)isoxazolidine-2-yl)pyrimidine-4-yl)amino)-4-methoxyphenyl) acrylamide]",A (GI50 < 50 nM)
3,"C=CC(=O)Nc1cc(Nc2cc(N3OCC[C@@H]3Cc3cccc(F)c3)ncn2)c(OC)cc1N1CCC(N2CCN(C3CC3)[C@@H](C)C2)CC1 [compound 993, N-(2-(4-((S)-4-cyclopropyl-3-methylpiperazine-1-yl)piperidine-1-yl)-5-((6-((S)-3-(3-fluorobenzyl)isoxazolidine-2-yl)pyrimidine-4-yl)amino)-4-methoxyphenyl) acrylamide]",A (GI50 < 50 nM)
4,"C=CC(=O)Nc1cc(Nc2cc(N3OCC[C@@H]3c3cccc4ccccc34)ncn2)c(OC)cc1N1CCC(N2CCN(CC)CC2)CC1 [compound 484, N-(2-(4-(4-ethylpiperazine-1-yl)piperidine-1-yl)-4-methoxy-5-((6-((R)-3-(naphthalene-1-yl)isoxazolidine-2-yl)pyrimidine-4-yl)amino)phenyl)acrylamide]",B (50 nM ≤ GI50 < 500 nM)
5,"C=CC(=O)Nc1cc(Nc2cc(N3OCC[C@@H]3c3ccc(F)c(Cl)c3F)ncn2)c(OC)cc1N1CCN(CC)CC1 [compound 600, N-(5-((6-((R)-3-(3-chloro-2,4-difluorophenyl)isoxazolidine-2-yl)pyrimidine-4-yl)amino)-2-(4-ethylpiperazine1-yl)-4-methoxyphenyl) acrylamide]",A (GI50 < 50 nM)
6,"C=CC(=O)Nc1cc(Nc2cc(N3OCC[C@@H]3c3cccc(C#N)c3)ncn2)c(OC)cc1N1CCN(C)CC1 [compound 393, N-(5-((6-((R)-3-(3-cyanophenyl)isoxazolidine-2-yl)pyrimidine-4-yl)amino)-4-methoxy-2-(4-methylpiperazine-1-yl)phenyl)acrylamide]",B (50 nM ≤ GI50 < 500 nM)
7,"C=CC(=O)Nc1cc(Nc2cc(N3OCC[C@@H]3c3ccc(F)cc3F)ncn2)c(OC)cc1N1CCN(C2CC2)CC1 [compound 344, N-(2-(4-cyclopropylpiperazine-1-yl)-5-((6-((R)-3-(2,4-difluorophenyl)isoxazolidine-2-yl)pyrimidine-4-yl)amino)-4-methoxyphenyl) acrylamide]",A (GI50 < 50 nM)
8,"C=CC(=O)Nc1cc(Nc2cc(N3OCC[C@@H]3c3cccc(OC)c3)ncn2)c(OC)cc1N1CCC(N2CCN(C3COC3)CC2)CC1 [Example 81, N-(4-methoxy-5-((6-((R)-3-(3-methoxyphenyl)isoxazolidine-2-yl)pyrimidine-4-yl)amino)-2-(4-(4-(oxetane-3-yl)piperazine-1-yl)piperidine-yl)phenyl) acrylamide]",B (50 nM ≤ GI50 < 500 nM)
9,"C=CC(=O)Nc1cc(Nc2cc(N3OCC[C@@H]3c3cc(F)cc(F)c3)ncn2)c(OC)cc1N1CCO[C@@H](C)C1 [compound 337, N-(5-((6-((R)-3-(3,5-difluorophenyl)isoxazolidine-2-yl)pyrimidine-4-yl)amino)-4-methoxy-2-((S)-2-methylmorpholino)phenyl)acrylamide]",B (50 nM ≤ GI50 < 500 nM)
10,C=CC(=O)Nc1cc(Nc2cc(N3OCC[C@@H]3c3ccccc3)ncn2)c(OC)cc1N1CCN(C2COC2)CC1 [Example 18],A (GI50 < 50 nM)
11,"C=CC(=O)Nc1cc(Nc2cc(N3OCC[C@@H]3Cc3cc(F)cc(F)c3)ncn2)c(OC)cc1N1CCN(C2CC2)CC1 [compound 1032, N-(2-(4-cyclopropylpiperazine-1-yl)-5-((6-(S)-(3-(3,5-difluorobenzyl)isoxazolidine-2-yl)pyrimidine-4-yl)amino)-4-methoxyphenyl) acrylamide]",B (50 nM ≤ GI50 < 500 nM)
12,"C=CC(=O)Nc1cc(Nc2cc(N3OCC[C@@H]3c3ccc(Cl)c(F)c3)ncn2)c(OC)cc1N1CCC(N2CCN(C3CC3)CC2)CC1 [Example 63, N-(5-((6-((R)-3-(4-chloro-3-fluorophenyl)isoxazolidine-2-yl)pyrimidine-4-yl)amino)-2-(4-(4-cyclopropylpiperazine-1-yl)piperidine-1-yl)-4-methoxyphenyl) acrylamide]",A (GI50 < 50 nM)
13,"C=CC(=O)Nc1cc(Nc2cc(N3OCC[C@@H]3c3ccc4ccccc4c3)ncn2)c(OC)cc1N1CCN(C)[C@@H](C)C1 [compound 662, N-(2-((S)-3,4-dimethylpiperazine-1-yl)-4-methoxy-5-((6-((R)-3-(naphthalene-2-yl)isoxazolidine-2-yl)pyrimidine-4-yl)amino)phenyl)acrylamide]",B (50 nM ≤ GI50 < 500 nM)
14,"C=CC(=O)Nc1cc(Nc2cc(N3OCC[C@]3(C)c3ccccc3)ncn2)c(OC)cc1N1CCC(N2C[C@H]3C[C@@H]2CO3)CC1 [Example 270, N-(2-(4-((1R,4R)-2-oxa-5-azabicyclo[2.2.1]heptane-5-yl)piperidine-1-yl)-4-methoxy-5-((6-((R)-3-methyl-3-phenylisoxazolidine-2-yl)pyrimidine-4-yl)amino)phenyl) acrylamide]",B (50 nM ≤ GI50 < 500 nM)
15,"C=CC(=O)Nc1cc(Nc2cc(N3OCC[C@@H]3c3ccc(F)c(Cl)c3F)ncn2)c(OC)cc1N1CCO[C@H](C)C1 [compound 666, N-(5-((6-((R)-3-(3-chloro-2,4-difluorophenyl)isoxazolidine-2-yl)pyrimidine-4-yl)amino)-4-methoxy-2-((R)-2-methylmorpholino)phenyl)acrylamide]",B (50 nM ≤ GI50 < 500 nM)
16,"C=CC(=O)Nc1cc(Nc2cc(N3OCC[C@@H]3c3c(F)ccc(F)c3F)ncn2)c(OC)cc1N1CCC(N2C[C@@H]3C[C@H]2CO3)CC1 [compound 642, N-(2-(4-((1S,4S)-2-oxa-5-azabicyclo[2.2.1]heptane-5-yl)piperidine-1-yl)-4-methoxy-5-((6-((R)-3-(2,3,6-trifluorophenyl)isoxazolidine-2-yl)pyrimidine-4-yl)amino)phenyl)acrylamide]",A (GI50 < 50 nM)
17,"C=CC(=O)Nc1cc(Nc2cc(N3OCC[C@@H]3c3ccc(F)c(Cl)c3F)ncn2)c(OC)cc1N1CC[C@@H](N(C)C)C1 [compound 599, N-(5-((6-((R)-3-(3-chloro-2,4-difluorophenyl)isoxazolidine-2-yl)pyrimidine-4-yl)amino)-2-((R)-3-(dimethylamino)pyrolidine-1-yl)-4-methoxyphenyl) acrylamide]",A (GI50 < 50 nM)
18,"C=CC(=O)Nc1cc(Nc2cc(N3OCC[C@@H]3c3cc(F)cc(F)c3)ncn2)c(OC)cc1N1CC(N2CCN(C3CC3)CC2)C1 [compound 588, N-(2-(3-(4-cyclopropylpiperazine-1-yl)azetidine-1-yl)-5-((6-((R)-3-(3,5-difluorophenyl)isoxazolidine-2-yl)pyrimidine-4-yl)amino)-4-methoxyphenyl) acrylamide]",B (50 nM ≤ GI50 < 500 nM)
